Measurements taken from US7348402B2, “Antimicrobial peptide, its analogs and antimicrobial composition comprising them” (priority 2002, dated 2008).
No end group written: not given here.

Legend:
Type in all cases: cell-based
E. coli = test: Cell penetration activity by confocal microscopy (FITC-labeled peptides); conditions: FITC-labeled peptide applied to fixed E. coli for 5 minutes
Method: FIGS. 1A˜1D are the results of analyzing the cell penetration activity of the new antimicrobial peptides by confocal microscopy. To emphasize the location of the antimicrobial peptides, color was eliminated from the images. The white area in FIGS. 1A˜1D is the antimicrobial peptide penetrated within the cell.
The cell penetration activity of the peptides prepared in Example 1 was observed by confocal microscopy. After inoculating and culturing E. coli in trypticase soy broth at 37° C. overnight, they were inoculated in new media and cultured for 2 hours to exponential growth phase. After washing E. coli with 10 mM NAPB (sodium phosphate buffer) and diluting to 10^5 CFU/ml, the above diluted E. coli was fixed for 30 min on glass-slides coated with poly-L-lysine. The N-terminus of the peptides prepared in Example 1 was labeled with FITC (fluoresceinisothicyanate), and the labeled peptides were applied to E. coli fixed on the glass-slides for 5 minutes. The glass-slides were washed with 10 mM NAPB and observed them by confocal microscopy.

[1] = tested on: human red blood cells (hRBC); test: Hemolytic activity on human red blood cells
Method: After separating the precipitated human red blood cells (hRBC) from 3 ml of human blood, they were washed with PBS (phosphate buffered saline) and diluted to make the total volume of 20 ml. In 190 μl of the prepared hRBC solution, 10 μl of each peptide sample (4 μg/μl ) prepared in Example 1 was added to make the final concentration of 200 μg/ml, reacted for 1 h at 37° C. and centrifuged for 5 min at 4000 rpm. […] The absorbance of the sample treated with 0.2% Triton X-100 was set to represent 100% hemolysis and the percent (%) hemolysis of each sample was relatively calculated from each measured absorbance, as shown in Table 3.

[2] = tested on: Bacillus subtilis (ATCC 62037); conditions: ATCC 62037, 12 h
Text: (§1) The microorganisms used in the present invention include Gram-positive bacteria such as Bacillus subtilis (ATCC 62037), Staphylococcus aureus (ATCC 15752) and Streptococcus mutans (ATCC 25175), Gram-negative bacteria such as Escherichia coli (ATCC 27325), Salmonella enteritidis (ATCC 15277) and Pseudomonas putida (ATCC 17426) and fungi such as Candida albicans (ATCC 10231), Saccharomyces cerevisiae (ATCC 44774) and Cryptococcus neoformans (ATCC 34881), obtained from American Type Culture Collection (ATCC).
(§2) The antimicrobial activity of the peptides prepared in Example 1 was determined against microorganisms by 96-well microdilution minimal inhibitory concentration assay. After overnight culturing the bacteria and fungi in trypticase soy broth (TSB) and Saboraud (SAB) at 37° C. and 30° C., respectively, they were inoculated in new media and cultured for 2 hours to exponential growth phase. After diluting the microorganisms to 10^5 per 1 ml, 190 μl was inoculated in each 96-well plate, and 10 μl of serially diluted peptides were added in each well.

[3] = tested on: Candida albicans (ATCC 10231); conditions: ATCC 10231, 12 h
Text: as §1, §2

[4] = tested on: Cryptococcus neoformans (ATCC 34881); conditions: ATCC 34881, 12 h
Text: as §1, §2

[5] = tested on: Escherichia coli (ATCC 27325); conditions: ATCC 27325, 12 h
Text: as §1, §2

[6] = tested on: Pseudomonas putida (ATCC 17426); conditions: ATCC 17426, 12 h
Text: as §1, §2

[7] = tested on: Saccharomyces cerevisiae (ATCC 44774); conditions: ATCC 44774, 12 h
Text: as §1, §2

[8] = tested on: Salmonella enteritidis (ATCC 15277); conditions: ATCC 15277, 12 h
Text: as §1, §2

[9] = tested on: Staphylococcus aureus (ATCC 15752); conditions: ATCC 15752, 12 h
Text: as §1, §2

[10] = tested on: Streptococcus mutans (ATCC 25175); conditions: ATCC 25175, 12 h
Text: as §1, §2

Compound	cell penetration activity (E. coli)	A567 ([1]; absorbance of supernatant diluted 10 times, peptide 200 μg/ml, 1 h at 37° C.)	hemolysis of hRBC (in words) ([1]; concentration of 200 μg/ml)	Minimum Inhibitory Concentration [2]	Minimum Inhibitory Concentration [3]	Minimum Inhibitory Concentration [4]	Minimum Inhibitory Concentration [5]	Minimum Inhibitory Concentration [6]	Minimum Inhibitory Concentration [7]	Minimum Inhibitory Concentration [8]	Minimum Inhibitory Concentration [9]	Minimum Inhibitory Concentration [10]
33 (KLVRNWPIGKLVRKLVRKLVR; antimicrobial peptide) [compound 33]	penetrate into E. coli cells	–	–	–	–	–	–	–	–	–	–	–
CC[C@H](C)[C@H](NC(=O)CN)C(=O)NCC(=O)N[C@@H](C)C(=O)N[C@H](C(=O)N[C@@H](CC(C)C)C(=O)N[C@@H](CCCCN)C(=O)N[C@H](C(=O)N[C@@H](CC(C)C)C(=O)N[C@H](C(=O)N[C@H](C(=O)NCC(=O)N[C@@H](CC(C)C)C(=O)N1CCC[C@H]1C(=O)N[C@@H](C)C(=O)N[C@@H](CC(C)C)C(=O)N[C@H](C(=O)N[C@@H](CO)C(=O)N[C@@H](Cc1c[nH]c2ccccc12)C(=O)N[C@H](C(=O)N[C@@H](CCCCN)C(=O)N[C@@H](CCCNC(=N)N)C(=O)N[C@@H](CCCCN)C(=O)N[C@@H](CCCNC(=N)N)C(=O)N[C@@H](CCC(N)=O)C(=O)N[C@@H](CCC(N)=O)C(N)=O)[C@@H](C)CC)[C@@H](C)CC)[C@@H](C)O)[C@@H](C)O)C(C)C)C(C)C [Melittin, melittin]	–	3.17	destroy almost all hRBC	–	–	–	–	–	–	–	–	–
GIGKFLHSAKKFGKAFVGEIMNS [Magainin, magainin, reference compound]	bind with cell membrane	–	–	–	–	–	–	–	–	–	–	–
RVLRQWPIGRVLRRVLRRVLR [compound 5]	–	–	–	1 µg/mL	1 µg/mL	1 µg/mL	1 µg/mL	1 µg/mL	2 µg/mL	1 µg/mL	1 µg/mL	1 µg/mL
RVLRRVLRRVLRQWPIGRVLR [compound 39]	–	–	–	2 µg/mL	2 µg/mL	1 µg/mL	1 µg/mL	1 µg/mL	2 µg/mL	1 µg/mL	2 µg/mL	2 µg/mL
RVVKNWPIGRVVKRVVKRVVK [compound 26]	–	–	–	1 µg/mL	2 µg/mL	1 µg/mL	2 µg/mL	1 µg/mL	2 µg/mL	1 µg/mL	1 µg/mL	1 µg/mL
RVVKRVVKRVVKNWPIGRVVK [compound 60]	–	–	–	1 µg/mL	1 µg/mL	1 µg/mL	2 µg/mL	1 µg/mL	1 µg/mL	2 µg/mL	2 µg/mL	2 µg/mL
RVVRNWPIGRVVRRVVRRVVR [compound 18]	–	–	–	1 µg/mL	1 µg/mL	1 µg/mL	1 µg/mL	1 µg/mL	1 µg/mL	2 µg/mL	1 µg/mL	2 µg/mL
RVVRQWPIGRVVRRVVRRVVR [compound 1]	–	–	–	2 µg/mL	2 µg/mL	1 µg/mL	1 µg/mL	1 µg/mL	2 µg/mL	1 µg/mL	1 µg/mL	2 µg/mL
RVVRRVVRRVVRNWPIGRVVR [compound 52]	–	–	–	1 µg/mL	1 µg/mL	1 µg/mL	1 µg/mL	1 µg/mL	1 µg/mL	2 µg/mL	1 µg/mL	2 µg/mL
RVVRRVVRRVVRQWPIGRVVR [compound 35]	–	–	–	1 µg/mL	1 µg/mL	1 µg/mL	2 µg/mL	1 µg/mL	2 µg/mL	1 µg/mL	1 µg/mL	1 µg/mL
SEQ ID NO: 1 (RVVRQWPIGRVVRRVVRRVVR; antimicrobial peptide)	penetrate into E. coli cells	–	–	–	–	–	–	–	–	–	–	–
